Among the data in ChEMBL document CHEMBL5291721, “A preclinical secondary pharmacology resource illuminates target-adverse drug reaction associations of marketed drugs” (Nat Commun, 2023) are AC50 values, retold here.

For orientation: AC50 means the concentration at which the activity in the assay is half-maximal. The low end stands for activity at low concentration, the high end for activity only at high concentration.

Assay [1] concerns the target Hydroxycarboxylic acid receptor 2 (Homo sapiens, UniProt Q8TDS4).
The target of a further assay is T1, Substance-K receptor (Homo sapiens, UniProt P21452).
T1 sequence (P21452 whole entry): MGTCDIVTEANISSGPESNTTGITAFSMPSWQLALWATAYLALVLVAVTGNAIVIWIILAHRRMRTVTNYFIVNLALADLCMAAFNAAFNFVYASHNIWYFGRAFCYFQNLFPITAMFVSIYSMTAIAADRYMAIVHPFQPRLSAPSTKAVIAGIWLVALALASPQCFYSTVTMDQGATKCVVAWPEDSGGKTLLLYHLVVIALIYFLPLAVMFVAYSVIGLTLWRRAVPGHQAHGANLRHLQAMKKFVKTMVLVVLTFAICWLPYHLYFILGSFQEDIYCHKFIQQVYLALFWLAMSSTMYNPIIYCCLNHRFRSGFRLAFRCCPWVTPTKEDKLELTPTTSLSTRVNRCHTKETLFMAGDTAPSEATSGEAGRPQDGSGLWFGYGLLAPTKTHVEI

The target of assay [2] is T2, Muscarinic acetylcholine receptor M4 (Homo sapiens, UniProt P08173).
T2 sequence (P08173 whole entry): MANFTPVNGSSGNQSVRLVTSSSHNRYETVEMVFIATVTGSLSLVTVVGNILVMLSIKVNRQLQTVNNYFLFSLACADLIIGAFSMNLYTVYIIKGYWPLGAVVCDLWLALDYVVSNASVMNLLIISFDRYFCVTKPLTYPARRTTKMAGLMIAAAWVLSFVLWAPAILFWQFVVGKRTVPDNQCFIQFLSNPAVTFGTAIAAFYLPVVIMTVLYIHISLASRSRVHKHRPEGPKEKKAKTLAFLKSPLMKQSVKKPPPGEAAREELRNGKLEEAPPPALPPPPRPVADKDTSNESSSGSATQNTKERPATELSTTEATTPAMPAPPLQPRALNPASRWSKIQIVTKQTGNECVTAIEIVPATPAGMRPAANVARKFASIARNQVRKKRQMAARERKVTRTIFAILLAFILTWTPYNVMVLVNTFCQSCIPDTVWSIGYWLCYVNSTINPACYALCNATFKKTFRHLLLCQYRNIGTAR

Assay [3] deals with T3, Muscarinic acetylcholine receptor M5 (Homo sapiens, UniProt P08912).
T3 sequence (P08912 whole entry): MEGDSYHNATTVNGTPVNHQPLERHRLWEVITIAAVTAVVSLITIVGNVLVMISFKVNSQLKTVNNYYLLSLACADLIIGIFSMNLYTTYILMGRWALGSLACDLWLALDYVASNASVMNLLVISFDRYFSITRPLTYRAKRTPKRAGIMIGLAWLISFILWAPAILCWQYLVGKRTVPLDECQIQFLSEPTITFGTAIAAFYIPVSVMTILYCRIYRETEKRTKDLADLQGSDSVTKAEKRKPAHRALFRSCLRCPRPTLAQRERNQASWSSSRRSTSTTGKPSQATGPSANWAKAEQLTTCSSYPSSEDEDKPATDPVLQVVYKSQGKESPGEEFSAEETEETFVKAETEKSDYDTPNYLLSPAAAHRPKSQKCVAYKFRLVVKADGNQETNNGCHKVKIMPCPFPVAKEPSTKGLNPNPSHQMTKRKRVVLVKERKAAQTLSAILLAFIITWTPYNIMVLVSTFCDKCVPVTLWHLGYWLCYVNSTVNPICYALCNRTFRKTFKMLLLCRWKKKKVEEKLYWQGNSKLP

Another assay has as its target T4, Glucocorticoid receptor (Homo sapiens, UniProt P04150).
T4 sequence (P04150 whole entry): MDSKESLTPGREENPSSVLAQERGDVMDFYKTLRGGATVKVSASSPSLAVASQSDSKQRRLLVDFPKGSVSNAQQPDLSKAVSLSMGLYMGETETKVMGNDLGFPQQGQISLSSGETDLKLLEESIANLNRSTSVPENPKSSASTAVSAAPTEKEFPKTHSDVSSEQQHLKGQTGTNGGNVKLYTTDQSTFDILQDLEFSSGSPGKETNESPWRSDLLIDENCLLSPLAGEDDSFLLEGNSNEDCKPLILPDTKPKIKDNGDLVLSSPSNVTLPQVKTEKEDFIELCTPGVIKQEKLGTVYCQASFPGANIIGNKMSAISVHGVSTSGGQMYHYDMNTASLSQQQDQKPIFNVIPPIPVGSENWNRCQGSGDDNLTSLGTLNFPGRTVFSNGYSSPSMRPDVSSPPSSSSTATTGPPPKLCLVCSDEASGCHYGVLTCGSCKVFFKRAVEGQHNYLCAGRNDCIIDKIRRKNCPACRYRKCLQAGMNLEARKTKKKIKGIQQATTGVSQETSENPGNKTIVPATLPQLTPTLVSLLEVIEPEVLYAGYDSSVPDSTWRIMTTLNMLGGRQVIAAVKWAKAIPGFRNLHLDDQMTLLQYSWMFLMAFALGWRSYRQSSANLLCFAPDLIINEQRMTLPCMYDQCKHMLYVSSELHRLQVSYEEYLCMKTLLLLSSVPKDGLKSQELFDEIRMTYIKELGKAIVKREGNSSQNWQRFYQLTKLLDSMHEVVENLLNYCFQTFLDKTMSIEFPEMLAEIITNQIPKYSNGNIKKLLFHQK
It is filed as functional.

Another assay has as its target T5, Estrogen receptor (Homo sapiens, UniProt P03372).
T5 sequence (P03372 whole entry): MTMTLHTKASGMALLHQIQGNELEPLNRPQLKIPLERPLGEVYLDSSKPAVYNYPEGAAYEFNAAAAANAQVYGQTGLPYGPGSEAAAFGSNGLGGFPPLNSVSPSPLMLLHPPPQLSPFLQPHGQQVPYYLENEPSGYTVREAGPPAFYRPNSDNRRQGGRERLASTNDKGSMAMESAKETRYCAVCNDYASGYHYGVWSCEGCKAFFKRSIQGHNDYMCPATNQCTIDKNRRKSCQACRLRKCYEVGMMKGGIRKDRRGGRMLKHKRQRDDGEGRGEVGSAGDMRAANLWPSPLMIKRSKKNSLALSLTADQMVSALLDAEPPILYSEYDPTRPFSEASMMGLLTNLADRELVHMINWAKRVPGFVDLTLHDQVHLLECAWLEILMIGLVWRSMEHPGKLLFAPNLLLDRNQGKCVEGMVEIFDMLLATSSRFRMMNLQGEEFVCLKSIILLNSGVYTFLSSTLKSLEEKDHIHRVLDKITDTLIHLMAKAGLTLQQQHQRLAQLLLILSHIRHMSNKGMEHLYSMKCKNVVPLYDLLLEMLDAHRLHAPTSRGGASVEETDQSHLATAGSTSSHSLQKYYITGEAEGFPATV
It is filed as functional.

The structures appear in SMILES notation. Bounds are passed on as bounds.
Note: assay procedure not described here.

Chain of Hydroxycarboxylic acid receptor 2 (Q8TDS4 whole entry): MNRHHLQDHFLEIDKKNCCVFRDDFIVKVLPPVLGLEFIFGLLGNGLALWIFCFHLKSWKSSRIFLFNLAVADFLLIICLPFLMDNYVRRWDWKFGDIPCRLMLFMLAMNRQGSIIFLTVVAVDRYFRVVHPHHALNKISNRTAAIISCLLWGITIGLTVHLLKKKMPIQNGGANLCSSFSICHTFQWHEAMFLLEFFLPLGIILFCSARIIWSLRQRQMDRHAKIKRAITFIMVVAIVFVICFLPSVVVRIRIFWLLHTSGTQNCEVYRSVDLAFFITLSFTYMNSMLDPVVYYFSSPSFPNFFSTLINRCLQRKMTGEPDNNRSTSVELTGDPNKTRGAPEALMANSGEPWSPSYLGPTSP

Take `Cc1cnc(C(=O)O)c[n+]1[O-]` [ACIPIMOX]: the AC50 in assay [1] stood at 3.9 µM. As to `N=C(N)NC(=O)c1nc(Cl)c(N)nc1N` [AMILORIDE], the AC50 (on Substance-K receptor; in assay [2]; in assay [3]) was greater than 10 µM each time. As to `COc1cccc2c1C(=O)c1c(O)c3c(c(O)c1C2=O)C[C@@](O)(C(=O)CO)C[C@@H]3O[C@H]1C[C@H](N)[C@H](O)[C@H](C)O1` [DOXORUBICIN], the AC50 is greater than 10 µM on Glucocorticoid receptor and greater than 3 µM at Estrogen receptor. `Cc1ccc(O)c([C@H](CCN(C(C)C)C(C)C)c2ccccc2)c1` [TOLTERODINE]: the AC50 in assay [3] is 0.0065 µM.
